The values below come from patent US20230345984A1, “SWEETENERS” (Sweegen, Inc, priority 2022, published 2023).

Data set [1] is described as follows: Sweetness grading of sweetener solutions on a scale from 0 to 15 over 7 days. Particulars: for Sweetness score Day 1 / Sweetness score Day 4 / Sweetness score Day 5 / Sweetness score Day 6 / Sweetness score Day 7: scale of 0-15. The protocol: Formulations comprising brazzein and rebaudiosides were developed and their relative sweetness was assessed. Sweetness was graded on a scale from 0 (no sweetness) to 15 (maximal sweetness) and assessed for the different formulations over a period of 7 days.

The conditions of data set [2]: cited from earlier work.
Data set [3] in a line: Sensory grading (0 to 9) of flavor and sweetness of chocolate formulations with versus without brazzein. The settings on record: chocolate with Reb D, Reb E, Reb I, Reb M, with vs without brazzein; FIG. 2B. On the procedure: Formulations comprising brazzein and chocolate were developed, and their relative flavor and sweetness were assessed. Sweetness and flavor were graded across different factors on a scale from 0 (minimum) to 9 (maximal) and assessed for the different formulations. Different factors tested include sweet taste, bitter taste, chocolate flavor, dairy flavor, sweet aromatics, and green/vegetative. The formulations tested comprise brazzein, Reb D, Reb E, Reb I, Reb M and chocolate compared to a control (chocolate comprising Reb D, Reb E, Reb I, and Reb M).
The sweetness is enhanced by having the early onset and slow fade more like sugar than chocolate that is only sweetened with Reb D, Reb E, Reb I, and Reb M. Therefore, including brazzein in food compositions, such as chocolate, enhance the flavor and sweetness of the composition.

The conditions of data set [4]: cited from earlier work. The source holds these as a separate data set.

Non-standard residues stand in square brackets, D forms with d. No end group written: not given here. pGlu = O=C1CC[C@@H](C(=O)O)N1

Regarding `C=C1C[C@@]23CC[C@H]4[C@@](C)(CCC[C@@]4(C)C(=O)O[C@@H]4O[C@H](CO)[C@@H](O)[C@H](O[C@@H]5O[C@H](CO)[C@@H](O)[C@H](O)[C@H]5O)[C@H]4O[C@@H]4O[C@H](CO)[C@@H](O)[C@H](O)[C@H]4O)[C@@H]2CC[C@]1(O[C@@H]1O[C@H](CO)[C@@H](O)[C@H](O[C@@H]2O[C@H](CO)[C@@H](O)[C@H](O)[C@H]2O)[C@H]1O[C@@H]1O[C@H](CO)[C@@H](O)[C@H](O)[C@H]1O)C3` [Reb M at SE of 5% sucrose, Rebaudioside M], in data set [1], the “Sweetness score Day 1” value is on record as 5, the “Sweetness score Day 4” value is 5, the “Sweetness score Day 5” value worked out at 5 and the “Sweetness score Day 6” value came to 5. Also, the “Sweetness score Day 7” value in data set [1] worked out at 5.
With `OC[C@H]1O[C@@](CO)(O[C@H]2O[C@H](CO)[C@@H](O)[C@H](O)[C@H]2O)[C@@H](O)[C@@H]1O` [Sucrose (5%), Sucrose], in data set [1], the “Sweetness score Day 1” value amounted to 5, the “Sweetness score Day 4” value stood at 5, the “Sweetness score Day 5” value turned out to be 5 and the “Sweetness score Day 6” value stood at 5. In addition, the “Sweetness score Day 7” value in data set [1] turned out to be 5.
Regarding “PyrE-bra: major form brazzein, pyroglutamic acid at N-terminus, 54 amino acid residues ([pGlu]DKCKKVYENYPVSKCQLANQCNYDCKLDKHARSGECFYDEKRNLQCICDYCEY; cysteine pairing not given here; UniProt P56552 1-54, looked up)”, in data set [2] (vs 10% sucrose solution), the “Times sweeter than 10% sucrose solution” value is listed as 500 times.
Consider “brazzein: natural peptide sweetener first isolated from the fruit of Pentadiplandra brazzeana Baillon (SEQ ID NO: 12) (QDKCKKVYENYPVSKCQLANQCNYDCKLDKHARSGECFYDEKRNLQCICDYCEY; Pentadiplandra brazzeana Baillon)”, for which, in data set [1] (25 ppm brazzein added to a 5% sucrose solution), the “Effect on perceived sweetness profile of the solution” value is “slightly enhanced”. Further, in data set [1] (25 ppm brazzein in 5% sucrose solution), the “Sweetness over the 7-day period” value is on record as “remained stable”. Moreover, the “Effect on sweetness of a Reb M solution” value in data set [1] (brazzein added to Reb M solution with SE of 5% sucrose, compared to sucrose plus brazzein) is reported as “synergistically enhanced”. For the same molecule, in data set [3], the Astringency result is listed as “decreased” and the “Bitter taste at 120 seconds” value is “decreased”. In addition, the “Times sweeter than sucrose on a weight basis” value in data set [2] (weight basis) is listed as 500-2000 times. Also, the “Sweet taste after incubation at 80° C. for 4.5 hours” value in data set [4] (80° C., 4.5 hours, pH range of 2.5-8.0) is reported as “sweet taste remains”. Besides, in data set [4] (98° C., 2 hours), the “Sweet taste after incubation at 98° C. for 2 hours” value is “sweet taste remains”.
